Experimental data taken from patent US6355799B1, “Substituted benzene compounds, process for their preparation, and herbicidal and defoliant compositions containing them” (ISK Americas Incorporated, priority 1997, dated 2002).

Assays:
Type in all cases: in vivo
[1] = tested on: sicklepod (Cassia obtusifolia, CASOB); assay: Post-emerge test, greenhouse herbicide activity screening; conditions: post-emerge, 14 days after application, rating scale 0-100
In short: (§1)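 Visual ratings on a 0-100 scale (0 no damage, 100 all plants dead) were taken at 14 days after treatment. Rates of 15-1000 g ai/ha in acetone, 187 l/ha, were sprayed onto soil one day after planting (pre-emerge) or onto 2-3 leaf plants with 0.25% v/v surfactant (post-emerge).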

[2] = tested on: velvetleaf (Abutilon theophrasti, ABUTH); assay: as above; conditions: post-emerge, 14 days after application, rating scale 0-100
In short: as §1

[3] = tested on: redroot pigweed (Amaranthus retroflexus, AMARE); assay: as above; conditions: post-emerge, 14 days after application, rating scale 0-100
In short: as §1

[4] = tested on: common ragweed (Ambrosia artemisizfolia L., AMBEL); assay: as above; conditions: post-emerge, 14 days after application, rating scale 0-100
In short: as §1

[5] = tested on: barnyardgrass (Echinochloa crus-galli, ECHCG); assay: as above; conditions: post-emerge, 14 days after application, rating scale 0-100
In short: as §1

[6] = tested on: lambsquarters (Chenopodium album, CHEAL); assay: as above; conditions: post-emerge, 14 days after application, rating scale 0-100
In short: as §1

[7] = tested on: ivyleaf morningglory (Ipomoea hederacea, IPOHE); assay: as above; conditions: post-emerge, 14 days after application, rating scale 0-100
In short: as §1

[8] = tested on: johnsongrass (Sorghum halepense, SORHA); assay: as above; conditions: post-emerge, 14 days after application, rating scale 0-100
In short: as §1

[9] = tested on: large crabgrass (Digitaria sanguinalis, DIGSA); assay: as above; conditions: post-emerge, 14 days after application, rating scale 0-100
In short: as §1

[10] = tested on: green foxtail (Setaria viridis, SETVI); assay: as above; conditions: post-emerge, 14 days after application, rating scale 0-100
In short: as §1

[11] = tested on: sicklepod (Cassia obtusifolia, CASOB); assay: Pre-emerge test, greenhouse herbicide activity screening; conditions: rated 14 days after application, 0 = no damage, 100 = complete death
In short: (§2)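 Compounds in acetone were track-sprayed at 187 l/ha, 15–1000 g ai/ha, onto sandy loam pots. Pre-emerge seeds were sown one day before spraying, with surface watering afterwards. Post-emerge plants were at the 2–3 leaf stage and sprayed with 0.25% v/v non-ionic surfactant. Injury was rated 0–100 at 14 days.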

[12] = tested on: velvetleaf (Abutilon theophrasti, ABUTH); assay: as above; conditions: rated 14 days after application, 0 = no damage, 100 = complete death
In short: as §2

[13] = tested on: common ragweed (Ambrosia artemisizfolia L., AMBEL); assay: as above; conditions: rated 14 days after application, 0 = no damage, 100 = complete death
In short: as §2

[14] = tested on: barnyardgrass (Echinochloa crus-galli, ECHCG); assay: as above; conditions: rated 14 days after application, 0 = no damage, 100 = complete death
In short: as §2

[15] = tested on: lambsquarters (Chenopodium album, CHEAL); assay: as above; conditions: rated 14 days after application, 0 = no damage, 100 = complete death
In short: as §2

[16] = tested on: ivyleaf morningglory (Ipomoea hederacea, IPOHE); assay: as above; conditions: rated 14 days after application, 0 = no damage, 100 = complete death
In short: as §2

[17] = tested on: johnsongrass (Sorghum halepense, SORHA); assay: as above; conditions: rated 14 days after application, 0 = no damage, 100 = complete death
In short: as §2

[18] = tested on: large crabgrass (Digitaria sanguinalis, DIGSA); assay: as above; conditions: rated 14 days after application, 0 = no damage, 100 = complete death
In short: as §2

[19] = tested on: green foxtail (Setaria viridis, SETVI); assay: as above; conditions: rated 14 days after application, 0 = no damage, 100 = complete death
In short: as §2

[20] = tested on: field corn (Zea mays L., var. Dekalb 535, CORN); assay: Post-emerge test, crop safety; conditions: post-emerge, 14 days after application, rating scale 0-100
In short: as §2

[21] = tested on: upland rice (Oryza sp., var. Tebonnet, RICE); assay: Post-emerge test, crop safety; conditions: post-emerge, 14 days after application, rating scale 0-100
In short: as §2

[22] = tested on: redroot pigweed (Amaranthus retroflexus, AMARE); assay: Pre-emerge test, greenhouse herbicide activity screening; conditions: rated 14 days after application, 0 = no damage, 100 = complete death
In short: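 Sandy loam pots; pre-emerge: sown 1 d pre-spray, surface-watered after, then bottom-watered. Post-emerge: sown 8–21 d before, 2–3 leaf stage, + 0.25% v/v NIS, bottom-watered. Acetone, 187 l/ha track spray, 15–1000 g ai/ha. 0–100 injury score, day 14.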

[23] = tested on: field corn (Zea mays L., var. Dekalb 535, CORN); assay: Pre-emerge test, crop safety; conditions: rated 14 days after application, 0 = no damage, 100 = complete death
In short: (§3)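 Plants grown in 10 cm pots of sandy loam mix received acetone-dissolved compounds through a moving flat-fan nozzle. Doses ranged from 15 to 1000 g ai/ha. Pre-emerge pots were seeded one day earlier, post-emerge pots 8–21 days earlier. Fourteen days on, each pot was graded 0–100 for damage.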

[24] = tested on: upland rice (Oryza sp., var. Tebonnet, RICE); assay: Pre-emerge test, crop safety; conditions: rated 14 days after application, 0 = no damage, 100 = complete death
In short: as §3

With `COc1c(Cl)cc(F)c(-n2c(=O)cc(C(F)(F)F)n(C)c2=O)c1NC(=O)c1cc([N+](=O)[O-])cc([N+](=O)[O-])c1` [2-70] the “phytotoxicity rating CASOB” value ([1]; 63 g ai/ha) was 10, the “phytotoxicity rating CASOB” value ([1]; 250 g ai/ha) was 20 and the “phytotoxicity rating ABUTH” value ([2]; 63 g ai/ha) was 100. For the same molecule, the “phytotoxicity rating ABUTH” value ([2]; 250 g ai/ha) was 100, the “phytotoxicity rating AMARE” value ([3]; 63 g ai/ha) was 70 and the “phytotoxicity rating AMARE” value ([3]; 250 g ai/ha) was 70. For the same molecule, the “phytotoxicity rating AMBEL” value ([4]; 63 g ai/ha) was 30, the “phytotoxicity rating AMBEL” value ([4]; 250 g ai/ha) was 30 and the “phytotoxicity rating ECHCG” value ([5]; 63 g ai/ha) was 0. The “phytotoxicity rating ECHCG” value ([5]; 250 g ai/ha) was 0, the “phytotoxicity rating CHEAL” value ([6]; 63 g ai/ha) was 50 and the “phytotoxicity rating CHEAL” value ([6]; 250 g ai/ha) was 70. For the same molecule, the “phytotoxicity rating IPOHE” value ([7]; 63 g ai/ha) was 60, the “phytotoxicity rating IPOHE” value ([7]; 250 g ai/ha) was 60 and the “phytotoxicity rating SORHA” value ([8]; 63 g ai/ha) was 0. For the same molecule, the “phytotoxicity rating SORHA” value ([8]; 250 g ai/ha) was 0, the “phytotoxicity rating DIGSA” value ([9]; 63 g ai/ha) was 0 and the “phytotoxicity rating DIGSA” value ([9]; 250 g ai/ha) was 0. The “phytotoxicity rating SETVI” value ([10]; 63 g ai/ha) was 20, the “phytotoxicity rating SETVI” value ([10]; 250 g ai/ha) was 0 and the “Pre-emerge Herbicidal Activity, phytotoxicity rating (0-100), CASOB” value ([11]; 63 g ai/ha) was 0. For the same molecule, the “Pre-emerge Herbicidal Activity, phytotoxicity rating (0-100), CASOB” value ([11]; 250 g ai/ha) was 40, the “Pre-emerge Herbicidal Activity, phytotoxicity rating (0-100), ABUTH” value ([12]; 63 g ai/ha) was 100 and the “Pre-emerge Herbicidal Activity, phytotoxicity rating (0-100), ABUTH” value ([12]; 250 g ai/ha) was 90. For the same molecule, the “Pre-emerge Herbicidal Activity, phytotoxicity rating (0-100), AMBEL” value ([13]; 63 g ai/ha) was 0, the “Pre-emerge Herbicidal Activity, phytotoxicity rating (0-100), AMBEL” value ([13]; 250 g ai/ha) was 30 and the “Pre-emerge Herbicidal Activity, phytotoxicity rating (0-100), ECHCG” value ([14]; 63 g ai/ha) was 0. The “Pre-emerge Herbicidal Activity, phytotoxicity rating (0-100), ECHCG” value ([14]; 250 g ai/ha) was 0, the “Pre-emerge Herbicidal Activity, phytotoxicity rating (0-100), CHEAL” value ([15]; 63 g ai/ha) was 80 and the “Pre-emerge Herbicidal Activity, phytotoxicity rating (0-100), CHEAL” value ([15]; 250 g ai/ha) was 100. For the same molecule, the “Pre-emerge Herbicidal Activity, phytotoxicity rating (0-100), IPOHE” value ([16]; 63 g ai/ha) was 0, the “Pre-emerge Herbicidal Activity, phytotoxicity rating (0-100), IPOHE” value ([16]; 250 g ai/ha) was 60 and the “Pre-emerge Herbicidal Activity, phytotoxicity rating (0-100), SORHA” value ([17]; 63 g ai/ha) was 0. The “Pre-emerge Herbicidal Activity, phytotoxicity rating (0-100), SORHA” value ([17]; 250 g ai/ha) was 0, the “Pre-emerge Herbicidal Activity, phytotoxicity rating (0-100), DIGSA” value ([18]; 63 g ai/ha) was 0 and the “Pre-emerge Herbicidal Activity, phytotoxicity rating (0-100), DIGSA” value ([18]; 250 g ai/ha) was 20. For the same molecule, the “Pre-emerge Herbicidal Activity, phytotoxicity rating (0-100), SETVI” value ([19]; 63 g ai/ha) was 0, the “Pre-emerge Herbicidal Activity, phytotoxicity rating (0-100), SETVI” value ([19]; 250 g ai/ha) was 60 and the “phytotoxicity rating CORN” value ([20]; 63 g ai/ha) was 0. The “phytotoxicity rating CORN” value ([20]; 250 g ai/ha) was 0, the “phytotoxicity rating RICE” value ([21]; 63 g ai/ha) was 0 and the “phytotoxicity rating RICE” value ([21]; 250 g ai/ha) was 0. The “Pre-emerge Herbicidal Activity, phytotoxicity rating (0-100), AMARE” value ([22]; 63 g ai/ha) was 70, the “Pre-emerge Herbicidal Activity, phytotoxicity rating (0-100), AMARE” value ([22]; 250 g ai/ha) was 100 and the “Pre-emerge phytotoxicity rating (0-100), crop damage, CORN” value ([23]; 63 g ai/ha) was 0. The “Pre-emerge phytotoxicity rating (0-100), crop damage, CORN” value ([23]; 250 g ai/ha) was 0, the “Pre-emerge phytotoxicity rating (0-100), crop damage, RICE” value ([24]; 63 g ai/ha) was 0 and the “Pre-emerge phytotoxicity rating (0-100), crop damage, RICE” value ([24]; 250 g ai/ha) was 10.
